The values below come from US6635668B1, “Imidazoline receptor binding compounds” (The University of North Carolina at Chapel Hill, priority 1998, dated 2003).

Usually Ki stands for a measure of affinity in units of concentration, obtained from inhibition or displacement. As a reminder, the Kd is a measure of binding affinity in units of concentration.

One assay concerns the target imidazoline receptor. The experiment in a line: Imidazoline receptor binding (Tables 2 and 3). Conditions: Table 2.
The target in assay [1] is imidazoline I2 sites. As to the kind of experiment: Competition binding of 5 nM [3H]idazoxan to rat liver membranes. Conditions: for Ki: 5 nM [3H]idazoxan (Kd 14 ± 2 nM), mean ± SD, compounds 4 and 8 mean ± 95% confidence intervals; for Hill Slope: inhibition of [3H]idazoxan binding. The protocol:
Membrane preparation. Membranes were prepared in accordance with known techniques (R. Zonnenchein et al., Eur. J. Pharmacol. 190, 203-215 (1990)). […] The livers were weighed and minced with scissors before being homogenized at 4° C. in solution A (0.25 M sucrose containing 0.1 mM phenylmethyl sulfonyl fluoride 1:10 v/v) for 1 min using a Biospec homogenizer (Bartlesville, Okla., USA). The homogenate was centrifuged at 600×g for 10 min at 4° C. The resulting pellet was washed with solution A, discarded and the supernatant fractions were combined and centrifuged at 12,000×g for 30 min. This pellet was washed then resuspended in cold buffer B (50 mM Tris/HCl pH 7.4). Using a Bio-Rad (Hercules, Calif., USA) assay kit, the protein concentration was determined using bovine serum albumin as the standard according to the assay of Bradford et al. (Bradford, M. M., 1976. Anal. Biochem. 72, 248-254.). The preparation was stored at −80° C. at a concentration of 20 mg protein/ml. Competition binding studies. Competition experiments were performed in 1 ml buffer B containing 5 nM [^3H]idazoxan. […] In all experiments, bound and free radioligand were separated by vacuum filtration through Whatman GF/C filters and washed with 2×10 ml cold buffer B. Radioactivity on filters was determined by liquid scintillation spectroscopy using a Packard Tri-Carb 2100TR. […] Data analysis. Binding analyses, statistics and graphics were performed using Prism 2.01 (Graphpad Software, Inc., San Diego, Calif., USA). […] The calculated log of the octanol:water partition coefficient (ClogP) was calculated using MedChem Software 3.5 (Daylight Chemical Information Systems, New Orleans, La., USA).

The subject of a further assay is Pneumocystis carinii. As to the kind of experiment: Anti-Pneumocystis carinii activity, P. carinii pneumonia in the rat. The note with it: for anti-P. carinii activity (in words): rat, compared with pentamidine. Format: in vivo. The protocol: Anti-Pneumocystis carinii activity. Induction, treatment and evaluation of P. carinii pneumonia in the rat was carried out according to methods described previously (Jones, S. K. et al., Antimicrob. Agents Chemother. 34, 1026-1030 (1990)). To summarize the scoring procedure, the mean histologic scores were determined by two examiners using a blinded protocol. P. carinii cysts were counted in the stained lung sections and assigned the following values; 0.5—less than 10 cysts counted per two fully examined sections; 1—scattered cysts with less than 10% of the lung tissue involved; 2—scattered cysts with limited intense focal involvement and 10 to 25% of lung tissue involved; 3—scattered cysts with numerous intense areas of focal involvement and 26 to 50% of lung tissue involved; 4—cysts found throughout the tissue with numerous intense focal areas of involvement having greater than 50% of lung tissue involved.

Assay [2] addresses imidazoline I2 sites. As to the kind of experiment: [3H]Idazoxan saturation binding in rat liver membranes. Conditions: 22° C., 45 min, read-out: Kd for saturable binding. On the procedure:
Membrane preparation. Membranes were prepared in accordance with known techniques (R. Zonnenchein et al., Eur. J. Pharmacol. 190, 203-215 (1990)). Briefly, male Sprague-Dawley rats (Hilltop, Scottsdale, Pa., USA) weighing approximately 250-300 g were decapitated, their livers rapidly removed and immediately placed into 0.25 M cold sucrose solution. The livers were weighed and minced with scissors before being homogenized at 4° C. in solution A (0.25 M sucrose containing 0.1 mM phenylmethyl sulfonyl fluoride 1:10 v/v) for 1 min using a Biospec homogenizer (Bartlesville, Okla., USA). The homogenate was centrifuged at 600×g for 10 min at 4° C. The resulting pellet was washed with solution A, discarded and the supernatant fractions were combined and centrifuged at 12,000×g for 30 min. This pellet was washed then resuspended in cold buffer B (50 mM Tris/HCl pH 7.4). Using a Bio-Rad (Hercules, Calif., USA) assay kit, the protein concentration was determined using bovine serum albumin as the standard according to the assay of Bradford et al. (Bradford, M. M., 1976. Anal. Biochem. 72, 248-254.). The preparation was stored at −80° C. at a concentration of 20 mg protein/ml. Saturation binding studies. Binding studies were performed in triplicate in 1 ml buffer B containing [^3H]idazoxan (0.1-50 nM). […]

Entries after “also recorded” stand apart in the source; their conditions may differ. Where a name gives a salt, the structure may show the parent alone.

For the molecule `N=C(N)c1cccc(OCCCCCOc2cccc(C(=N)N)c2)c1` [001 KAO 011], the Ki on imidazoline receptor was found to be 0.158 µM.
`N=C(N)c1ccc2[nH]c3ccc(C(=N)N)cc3c2c1` [003 KAO 111]: at imidazoline receptor, affinity was put at a Ki of 44.7 µM.
Same read-out and setting: then `N=C(N)c1ccc2[nH]c(CCCCc3nc4cc(C(=N)N)ccc4[nH]3)nc2c1` [BABB], with 5.53 µM.
Consider `N=C(N)c1ccc2[nH]c(Cc3nc4cc(C(=N)N)ccc4[nH]3)nc2c1` [BABIM], for which, at imidazoline receptor, the Ki worked out at 7.51 µM.
`c1cc2[nH]c(CCCCc3nc4cc(C5=NCCN5)ccc4[nH]3)nc2cc1C1=NCCN1` [BIBB] displayed a Ki at imidazoline receptor of 44.8 µM.
Molecule `c1ccc(C2CC2)c(OCC2=NCCN2)c1` [Cirazoline, cirazoline, reference compound] came in with a Ki at imidazoline I2 sites [1] of 3 ± 0.4 nM.
With `N=C(N)c1ccc(OCCCCCOc2ccc(C(=N)N)cc2)cc1` [Compound 1, pentamidine, reference compound], at imidazoline I2 sites [1], the Ki was 1.4 ± 0.22 nM and the “Hill Slope” value is −0.8. Further, in the assay on Pneumocystis carinii (rat lung sections, saline control 3.8 out of a possible 4.0), the mean histologic score was found to be 1.3.
Turning to `N=C(N)c1ccc(OCCCCCCOc2ccc(C(=N)N)cc2)cc1` [Compound 2], at imidazoline I2 sites [1], affinity was put at a Ki of 3.2 ± 0.36 nM and the “Hill Slope” value is reported as −1.2. For the same molecule, the “anti-P. carinii activity (in words)” value in the assay on Pneumocystis carinii is given as “greater than pentamidine”.
Consider `c1cc(C2=NCCN2)ccc1OCCCCCOc1ccc(C2=NCCN2)cc1` [Compound 3], for which, on imidazoline I2 sites [1], the Ki was 4.3 ± 1.09 nM and the “Hill Slope” value is on record as −0.8. Further, the “anti-P. carinii activity (in words)” value with Pneumocystis carinii is on record as “greater than pentamidine”.
With `N=C(N)c1ccc(OCCCCOc2ccc(C(=N)N)cc2)cc1` [Compound 4], the “Hill Slope” value in the assay with imidazoline I2 sites [1] was −0.8. In addition, the “anti-P. carinii activity (in words)” value with Pneumocystis carinii is listed as “greater than pentamidine”.
Turning to `COc1cc(C2=NCCN2)ccc1OCCCOc1ccc(C2=NCCN2)cc1OC` [Compound 5], at imidazoline I2 sites [1], the Ki came to 50.1 ± 1.06 nM and the “Hill Slope” value is −0.9. Also, in the assay with Pneumocystis carinii, the “anti-P. carinii activity (in words)” value is on record as “greater than pentamidine; also recorded: equally effective”.
For `COc1cc(C(=N)N)ccc1OCCCOc1ccc(C(=N)N)cc1OC` [Compound 6], in that order: about 3500 nM, −0.9 and “greater than pentamidine; also recorded: equally effective”.
As to `N=C(N)c1ccc(OCCCOc2ccc(C(=N)N)cc2)cc1` [Compound 7], the “Hill Slope” value with imidazoline I2 sites [1] is −0.8.
As for `N=C(N)c1ccc(OCCCCCOc2ccc([N+](=O)[O-])cc2)cc1` [Compound 8], at imidazoline I2 sites [1], the Ki stood at 62 ± 25 nM and the “Hill Slope” value is −0.8.
Take `N=C(N)c1ccc(OCCCCCO)cc1` [Compound 9]: at imidazoline I2 sites [1], the affinity, expressed as Ki, was 319 ± 39.5 nM and the “Hill Slope” value is on record as −0.8. Further, in the assay with Pneumocystis carinii, the “anti-P. carinii activity (in words)” value is “no activity at all”.
Consider `COc1ccc(C(=N)N)cc1` [Compound 10, 4-methoxybenzamidine], for which, on imidazoline I2 sites [1], the affinity, expressed as Ki, was 228 ± 36.5 nM and the “Hill Slope” value is −0.8.
`N=C(N)c1ccc(O)cc1` [Compound 11, 4-hydroxybenzamidine]: on imidazoline I2 sites [1], the Ki was about 30000 nM and the “Hill Slope” value was −0.3. The “anti-P. carinii activity (in words)” value in the assay on Pneumocystis carinii is recorded as “no activity at all”.
`N=C(N)c1ccccc1` [Compound 12, benzamidine]: at imidazoline I2 sites [1], the Ki came out at 580 ± 61.3 nM and the “Hill Slope” value was −0.8.
Consider `N=C(N)c1ccc2c(c1)[nH]c1cc(C(=N)N)ccc12` [DAP 092], for which the affinity on imidazoline receptor, expressed as Ki, was 18.1 µM.
`c1cc(-c2ccc(-c3ccc(C4=NCCN4)cc3)o2)ccc1C1=NCCN1` [DB 60] had a Ki on imidazoline receptor of 0.63 µM.
`N=C(N)c1ccc(-c2ccc(-c3ccc(C(=N)N)cc3)o2)cc1` [DB 75] displayed a Ki at imidazoline receptor of 0.653 µM.
The same measure, in the same setting: then `c1cc(-c2ccc(-c3ccc(C4=NCCCN4)cc3)o2)ccc1C1=NCCCN1` [DB 103], with 0.236 µM; and `CC(C)NC(=N)c1ccc(-c2ccc(-c3ccc(C(=N)NC(C)C)cc3)o2)cc1` [DB 181], with 5.5 µM.
With `N=C(N)c1ccc2[nH]c(-c3ccc4[nH]c(-c5ccc(O)cc5)nc4c3)nc2c1` [DB 183], the affinity at imidazoline receptor, expressed as Ki, was 65.6 µM.
Still for that read-out and setting: then `N=C(N)c1ccc2nc(C3=CCC=C(c4nc5ccc(C(=N)N)cc5[nH]4)N3)[nH]c2c1` [DB 205], with 347 µM.
In the case of `N=C(NC1CCCC1)c1ccc(-c2ccc(-c3ccc(C(=N)NC4CCCC4)cc3)o2)cc1` [DB 244], the Ki on imidazoline receptor came out at 6.75 µM.
For the molecule `N=C(N)c1ccc(-c2ccc(-c3ccc(C(=N)N)cc3)[nH]2)cc1` [DB 262], on imidazoline receptor, the affinity, expressed as Ki, was 3.79 µM.
With `N=C(N)c1ccc(-c2ccc(-c3ccc(C(=N)N)cc3)s2)cc1` [DB 351], the Ki at imidazoline receptor amounted to 0.111 µM.
At imidazoline I2 sites [1], `Cc1ccc(N(CC2=NCCN2)c2cccc(O)c2)cc1` [Phentolamine, phentolamine, reference compound] came in with a Ki of over 5000 nM.
Take `[3H]c1cc2c(cc1[3H])OC(C1=NCCN1)CO2` (stereo not drawn) [[^3H]idazoxan, (1,4-[6,7-^3H]-benzodioxan-2-yl)-2-imidazoline hydrochloride]: the Kd on imidazoline I2 sites [2] amounted to 14 ± 2 nM.
